The values that follow come from publication PMC12196043, “In Vivo PK-PD and Drug–Drug Interaction Study of Dorzagliatin for the Management of PI3Kα Inhibitor-Induced Hyperglycemia” (Pharmaceuticals, 2025).

≈ marks a conversion by molar mass, not a printed value.

Data set [1] in a line: Plasma pharmacokinetics by LC-MS/MS in OVCAR3 xenograft tumor-bearing nude mice. The note with it: n = 3. The format is in vivo, BALB/c nude mice. The procedure:
This study, approved by Fudan University Ethics Committee (protocol code: 201904008Z) on 26 April 2019, was conducted in compliance with AAALAC’s International Commission guidelines for laboratory animal evaluation and accreditation. A total of 36 female BALB/c nude mice (6–8 weeks old, weighing 18–20 g) were purchased from Charles River Laboratories (Pinghu, China). The OVCAR3 ovarian cancer cell line (ATCC® HTB-161™) was used to establish human xenografts. OVCAR3 cells (10 × 10^6) suspended in 0.2 mL of Matrigel were subcutaneously inoculated into the dorsal region of each mouse. Tumors were allowed to grow until reaching a volume of ~160 mm^3, typically around 30 days post-inoculation.
WX390 was prepared in Solvent-1, comprising dimethyl sulfoxide (DMSO): methylcellulose: water at a ratio of 1:1:98 (v/v/v). BYL719 and dorzagliatin were formulated in Solvent-2, consisting of Tween 80: water with 0.5% methylcellulose (MC) solution at a ratio of 0.2:99.8 (v/v). The treatment control was a combination of Solvent-1 and Solvent-2. The test compounds were administered orally as follows: WX390 at 0.2 mg/kg, BYL719 at 25 mg/kg, and dorzagliatin at 10 mg/kg, dissolved in their respective formulations. Due to ethical considerations regarding gavage volume the administration volume across all groups was standardized to 10 μL/g of body weight.
The experiment involved six treatment groups, each comprising six mice. The groups included: (i) vehicle control, (ii) WX390 (0.2 mg/kg), (iii) BYL719 (25 mg/kg), (iv) dorzagliatin (10 mg/kg), (v) WX390 (0.2 mg/kg) + dorzagliatin (10 mg/kg), and (vi) BYL719 (25 mg/kg) + dorzagliatin (10 mg/kg). All treatments were administered via oral gavage once daily for four weeks. In the combination group of PI3Ki and dorzagliatin, dorzagliatin was administered 30 min prior to PI3Ki.
Following the 4-week treatment period, all experimental groups were fasted 6 h before the last administration until the end of the experiment. Water was not restricted during the fasting period. Blood samples were collected at 0, 0.5, 1, 2, 4, and 8 h after administration. Each mouse had 3 blood collection points, with 50 μL of plasma collected at each point. Mice in each group were allocated to two cohorts: The first cohort underwent blood collection at 0, 1, and 2 h post-administration, while the second cohort was sampled at 0.5, 4, and 8 h post-administration. Terminal blood collection at the 2-h time point for the first cohort was performed via cardiac puncture following euthanasia, during which tumor tissues were concurrently harvested from this cohort. Blood samples were processed through centrifugation (4 °C, 1500× g for 10 min) for plasma separation. All plasma and tumor samples were immediately snap-frozen in liquid nitrogen and stored at −80 °C for subsequent analysis.
The extraction of WX390, BYL719, and dorzagliatin from plasma samples was performed using protein precipitation. Internal standards (IS) included SBL-D3, BNSL-D5, and PLPL-D8 for WX390, BYL719, and dorzagliatin, respectively. Plasma samples (20 μL) were mixed with 20 μL of zinc sulfate aqueous solution (0.1 mol/L) and 200 µL of a 50% methanol solution containing three internal standards followed by vortexing for 10 min. The samples were centrifuged at 4 °C (15,000× g for 5 min). The supernatant (180 μL) was transferred to a clean Eppendorf tube, and a 10 μL aliquot was injected into the LC-MS/MS system.
Chromatographic separations were performed using an AB SCIEX Jasper HPLC system coupled with an AB SCIEX Triple Quad 4500MD mass spectrometer (AB SCIEX, USA). A Phenomenex Kinetex C18 column (100 × 3 mm, 2.6 μm) was used at 40 °C. The flow rate was maintained at 0.4 mL/min with a total run time of 4 min. […]

Data set [2] relates to fasting plasma glucose (∆FPG). Kind of data set: PK/PD sigmoid Emax model of dorzagliatin plasma concentration vs ∆FPG. The format is in vivo, BALB/c nude mice. The procedure:
To further characterize the pharmacokinetics of the compounds, a two-compartment model with first-order absorption was developed using the Phoenix Model module in Phoenix software. The AIC method was applied to identify the most suitable pharmacokinetic model. This model facilitated the comprehensive evaluation of the pharmacokinetic behavior of the drugs under investigation.
To evaluate the effect of the test compounds on blood glucose levels, 10 μL of blood was collected from the tail veins of mice at baseline (time 0) and at predetermined time points (0.5, 1, 2, 4, 6, and 8 h) post-administration. Blood glucose levels were measured using a OneTouch Ultra glucometer. Changes in FPG levels over time were monitored and analyzed. ∆FPG was calculated using Equation (5):(5) ∆FPG=FPGcontrol−FPGexp/FPGcontrol×100% where: • FPGexp represents the FPG levels in the dorzagliatin group, dorzagliatin + WX390 group, or the dorzagliatin + BYL719 group. • FPGcontrol represents the FPG levels in the vehicle control group, WX390 group, or BYL719 group.
A preliminary PK/PD interaction model was developed using plasma concentrations and FPG levels in tumor-bearing mice. The relationship between plasma drug concentrations and FPG reduction was described using the Sigmoid Eₘₐₓ model (Equation (6)):(6) E=E0+Emax×Ce^γ/EC50γ+Ce^γ where: • E represents the mean percent blood glucose reduction. • Cₑ indicates the plasma concentration of the drug that elicits a pharmacodynamic response. • E0 is the baseline drug effect. • Eₘₐₓ represents the maximum potential drug effect. • EC50 is the plasma concentration at which 50% of the maximum drug effect is observed. • γ denotes the Hill coefficient, which reflects the steepness of the concentration-effect curve.

Data set [3] concerns CYP1A2, 2A6, 2C9, 2C19, 2D6, 2E1, CYP3A4/5. Also noted: method as in ref 32 = [32]; 32. Wang J. Zhao Z. Xu W. Hu X. Jin P. First Marketed Glucokinase Activator for Antidiabetic Therapy: Dorzagliatin Chin. Pharm. J. 2024 59 651 656. The note with it: in vitro studies; cited from earlier work.
On the set-up of data set [4]: method as in PMID 35551294. The note with it: cited from earlier work.
[5] abbreviates: Dorz 10 mg/kg measured in Dorz + BYL719 (25 mg/kg) group, oral.
Where [6] appears, read: Dorz 10 mg/kg measured in Dorz + WX390 (0.2 mg/kg) group, oral.
Setting [7] is: monotherapy group, plasma, oral gavage once daily for four weeks, Dorz 10 mg/kg, WX390 0.2 mg/kg, BYL719 25 mg/kg.
[8] abbreviates: E = mean percent blood glucose reduction (∆FPG).

For the compound `CC(C)C[C@@H](C(=O)Nc1ccn(C[C@@H](O)CO)n1)N1CC(Oc2ccccc2Cl)=CC1=O` [Dorz, Dorzagliatin], in data set [1] (setting [5]), the AUC0→t came to 3953.58 ng·h/mL; the Cmax (usually the highest concentration seen after dosing) was determined as 2013.33 ng/mL; the Tmax (as a rule, the time at which the peak concentration occurs) is 1.00 h; the t1/2 stood at 1.86 h. In addition, in data set [1] (setting [6]), the AUC0→t was determined as 4657.23 ng·h/mL, the maximum concentration (Cmax) was determined as 1776.67 ng/mL, the Tmax is reported as 0.50 h and the t1/2 is 2.93 h. In data set [1] (setting [7]), the AUC0→t is 3287.90 ng·h/mL, the Cmax is 1331.00 ng/mL, the Tmax came to 0.50 h and the t1/2 is reported as 2.15 h. In data set [2] (setting [8]), the “E0 (baseline drug effect) in PK/PD equation” value worked out at 10 and the Emax (maximum potential drug effect) in PK/PD equation was 50%. Besides, the “EC50 (∆FPG as indicator)” value in data set [2] (dorzagliatin plasma concentration giving 50% of maximum effect, per treatment group) is 0.74 µg/mL (≈ 1.6 µM). For the same compound, in data set [2] (∆FPG, per treatment group), the “Hill coefficient (γ)” value worked out at 0.80. The “inhibition of CYP1A2, 2A6, 2C9, 2C19, 2D6, 2E1, CYP3A4/5” value in data set [3] is given as “does not inhibit”. In addition, in data set [4] (24-week double-blind treatment period, 1 of 310 patients), the “patients with clinically significant hypoglycemic events (blood glucose < 54 mg/dL)” value was 0.3%. In addition, the “exposure-adjusted event rate for clinically significant hypoglycemia” value in data set [4] (52-week observation period) is 0.006 events per patient-year.
